Our source for the IC50 values is patent US10786479B2, “Methods for inhibiting conversion of carnitine to trimethylamine (TMA)” (The Procter & Gamble Company, priority 2015, dated 2020).

T1 sequence (P0ABR7 whole entry): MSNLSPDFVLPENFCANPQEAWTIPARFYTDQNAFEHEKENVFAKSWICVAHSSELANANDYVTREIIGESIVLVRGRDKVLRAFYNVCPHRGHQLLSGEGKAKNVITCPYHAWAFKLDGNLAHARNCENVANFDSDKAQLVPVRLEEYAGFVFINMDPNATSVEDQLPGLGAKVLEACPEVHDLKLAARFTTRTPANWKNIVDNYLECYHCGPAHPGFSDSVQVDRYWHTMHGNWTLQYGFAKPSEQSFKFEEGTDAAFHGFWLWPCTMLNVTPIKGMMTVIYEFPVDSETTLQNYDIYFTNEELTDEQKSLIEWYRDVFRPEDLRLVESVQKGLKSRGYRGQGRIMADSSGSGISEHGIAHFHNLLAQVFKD

The assay has as its target T1, Ec YeaWX lysate (Escherichia coli YeaW/YeaX) (Escherichia coli, UniProt P0ABR7).
T1 construct: create a 5′ NdeI restriction site including the ATG start codon of yeaW; create a PstI restriction site just 3′ of the yeaX TAG stop codon; made in house; host or cells: E. coli BL21 (DE3), pET30a, IPTG induction; unpurified French-press lysate supernatant
Nature of the assay: Inhibition of d9-TMA formation from d9-carnitine in Ec YeaWX lysate (LC-MS/MS). It counts as biochemical. The settings on record: Ec YeaWX lysate 2.0 mg/mL protein, 250 μM NADPH, 50 μM d9-carnitine chloride, 37° C. for two hours; read-out: TMA Inhibition (IC50, mol/L). The text has this:
This example provides an exemplary assay for identifying and characterizing compounds that inhibit the formation of TMA from carnitine.
Escherichia coli BL21*DE3::pET30a-Ec yeaWX #1 (Ec YeaWX) strain was generated as described below. The contiguous Escherichia coli coding sequence yeaW (equivalent to uniprot ID P0ABR7.1 (YeaW) (SEQ ID NO: 2)) and yeaX (equivalent to uniprot ID P76254.1 (YeaX) (SEQ ID NO: 3)) were PCR amplified from Escherichia coli strain K-12 substr. BW25113 genomic DNA. PCR primers (YeaW_Nde_I_fwd2—SEQ ID NO: 4; YeaX_rev2—SEQ ID NO: 5) were designed to create a 5′ NdeI restriction site including the ATG start codon of yeaW and create a PstI restriction site just 3′ of the yeaX TAG stop codon.
The amplicon was restricted and cloned into the NdeI and PstI sites of the plasmid pET30a downstream of the inducible T7 promoter. A blast search of the resulting cloned amplicon DNA sequence (SEQ ID NO: 1) corresponded to nucleotide range 1884665 to 1886810 of Escherichia coli str. K-12 substr. MG1655 (NCBI Accession # NC_000913). The construct was transformed and grown in E. coli BL21 (DE3) and the recombinant yeaWX overexpressed by addition of isopropyl β-D-1-thiogalactopyranoside (IPTG).
The bacteria were grown aerobically in 50 mL LB broth (Difco #244620; 10 g/L Tryptone, 5 g/L yeast extract, 10 g/L NaCl, 50 μg/mL kanamycin), in a 500 mL Erlenmeyer flask. The cultures were inoculated from glycerol stock of BL21*DE3::pET30a-Ec yeaWX #1 strain. Strains were cultured all day at 37° C. with 250 rpm shaking. Two 300 mL Minimal M9 Medium (6 g/L Na2HPO4, 3 g/L KH2PO4, 0.5 g/L NaCl, 1 g/L NH4Cl, 0.1 mM CaCl2, 1 mM MgSO4, 0.2% Dextrose, 1 mg/L Thiamine, 50 μg/mL kanamycin), in 1 L Erlenmeyer flasks, were inoculated with 5 mL of the LB broth day culture and cultured overnight at 37° C. with 250 rpm shaking. The overnight cultures were used to inoculate twelve 1 L cultures of Minimal M9 media in 2.8 L fluted Erlenmeyer flasks to an OD 600 nm of 0.05 (typically approximately 28 mLs), which were grown at 37° C. with 250 rpm shaking until an OD600 of approximately 0.4 was reached. Expression of YeaWX was induced with 1 mM IPTG and the induced cultures were further grown overnight at 37° C. with 250 rpm shaking. The biomass was pelleted by centrifugation at 6000×g for 12 minutes at 4° C. The cell pellet was suspended in 240 mL of ice-cold 1× Phosphate Buffered Saline (Ca^2+ and Mg^2+ free). Ninety micrograms of Lysozyme (Sigma # L6876 Lot # SLBG8654V; Sigma-Aldrich Corp., St. Louis, Mo.) was added and incubated with 320 rpm shaking for 30 minutes at 4° C. Lysis was achieved via French press with a 4° C. prechilled 1″ diameter chamber at 1000 psi (high ratio; internal PSI equivalent ˜16000). The lysate was centrifuged at 6,000×g for 12 minutes at 4° C. to pellet extra debris. Glycerol was added to the centrifuged lysate supernatant at a final concentration of 15% A protein concentration of the centrifuged lysate supernatant was determined by a BCA Protein Assay Kit (Pierce #23225), typically in the 2.5 to 4.5 mg/ml range. The centrifuged Ec YeaWX lysate supernatant was aliquoted into 20 mL volumes and stored frozen at −80° C.
Ec YeaWX lysate was diluted to 2.0 mg/mL protein with 1× Dulbecco's phosphate buffered saline (DPBS) plus 15% glycerol. Nicotinamide adenine dinucleotide phosphate (NADPH) was added to 250 μM. One hundred and fifty microliters of Ec YeaWX lysate was dispensed into a deep-well plate (polypropylene, 2 mL volume, Corning Axygen catalogue # P-DW-20-C). […] The plates were agitated on a plate shaker for 1 minute. d9-carnitine chloride (1.5 μL of 5 mM) was added to all wells to reach a final d9-carnitine chloride concentration of 50 μM.
The plates were again agitated on a plate shaker for 1 minute and incubated at 37° C. for two hours. After incubation, 1.5 μL of formic acid was added to each well (final concentration=1% formic acid). The plates were agitated on a plate shaker for 1 minute and placed on ice. […]
In the case of `CC(C)CN=C=S` [Compound 12, Isobutyl isothiocyanate], the IC50 stood at 74.5 µM.

In the case of `CN(C)CCCN=C=S` [Compound 41, 3-isothiocyanato-N,N-dimethyl-1-Propanamine], the IC50 amounted to 320 µM.

As for `CC(C)(C)N=C=S` [Compound 2, tert-Butyl isothiocyanate], the IC50 is above 1000 µM.

With Ethyl isothiocyanate [Compound 11], the IC50 was found to be 82.2 µM.

Take `CCCCN=C=S` [Compound 13, Butyl isothiocyanate]: the IC50 turned out to be 63.6 µM.

As to `S=C=Nc1ccc(Cl)cc1` [Compound 27, 4-Chlorophenyl isothiocyanate], the IC50 worked out at 4.57 µM.

For the molecule Methyl isothiocyanate [Compound 14], the IC50 is 149 µM.

With `COc1ccc(C)cc1N=C=S` [Compound 1, 2-Methoxy-5-methylphenyl isothiocyanate], the IC50 was 61.6 µM.

As for `CN(C)CCN=C=S` [Compound 42, 2-Isothiocyanato-N,N-dimethylethanamine], the IC50 worked out at 164 µM.

On to `COc1ccccc1N=C=S` [Compound 32, 2-Methoxyphenyl isothiocyanate], for which the IC50 worked out at 33.3 µM.

As to `COc1ccc(OC)c(N=C=S)c1` [Compound 33, 2,5-Dimethoxyphenyl isothiocyanate], the IC50 was 47.7 µM.

For the molecule `CCC(C)N=C=S` (stereo not drawn) [Compound 10, sec-butyl isothiocyanate], the IC50 amounted to 146 µM.

As for `O=C(N=C=S)c1ccccc1` [Compound 21, Benzoyl isothiocyanate], the IC50 worked out at 138 µM.

As for `CC(C)(C)OC(=O)NCCCCN=C=S` [Compound 22, N-Boc-4-isothiocyanatobutylamine], the IC50 came to 17.7 µM.

For the molecule `COc1ccc(N=C=S)cc1` [Compound 28, 4-Methoxyphenyl isothiocyanate], the IC50 turned out to be 5.76 µM.

With `COc1cccc(N=C=S)c1` [Compound 34, 3-Methoxyphenyl isothiocyanate], the IC50 came to 9.59 µM.

Consider `S=C=Nc1ccccc1` [Compound 18, Phenyl isothiocyanate], for which the IC50 is 6.45 µM.

As for `S=C=NCCCN1CCOCC1` [Compound 24, 3-(4-Morpholino)propyl isothiocyanate], the IC50 is 68.5 µM.

Consider `CCN(CC)CCN=C=S` [Compound 40, Ethanamine, N,N-diethyl-2-isothiocyanato], for which the IC50 turned out to be 320 µM.

`Cc1cccc(N=C=S)c1` [Compound 3, m-Tolyl isothiocyanate]: the IC50 came to 14.5 µM.

Regarding `S=C=Nc1cccc2ccccc12` [Compound 19, 1-Naphthyl isothiocyanate], the IC50 worked out at 12.5 µM.

Regarding `CCOC(=O)CN=C=S` [Compound 36, Ethyl isothiocyanatoacetate], the IC50 amounted to 30 µM.

Regarding `CCN(CC)CCCN=C=S` [Compound 7, 3-(Diethylamino)propyl isothiocyanate], the IC50 amounted to 146 µM.

Regarding `CCc1ccc(N=C=S)cc1` [Compound 31, 4-Ethylphenyl isothiocyanate], the IC50 stood at 17.3 µM.

Turning to `CC(C)(C)OC(=O)Nc1ccc(N=C=S)cc1` [Compound 23, N-Boc-4-isothiocyanatoaniline], the IC50 stood at 15.7 µM.

Regarding `S=C=N[C@@H]1C[C@H]2CC[C@@H]1C2` (relative stereo) [Compound 29, exo-2-Norbornyl-isothiocyanate], the IC50 came to 21.6 µM.

On to `C[C@H](N=C=S)c1ccccc1` [Compound 26, (S)-(+)-alpha-Methylbenzyl isothiocyanate], for which the IC50 was 7.34 µM.

Turning to `S=C=NC1CCCCC1` [Compound 30, Cyclohexyl isothiocyanate], the IC50 is 38.8 µM.

For the molecule `S=C=NCCc1ccc(Cl)cc1` [Compound 9, 2-(4-Chlorophenethyl) isothiocyanate], the IC50 turned out to be 12.7 µM.

As for `CC(C)CCN=C=S` [Compound 16, 1-isothiocyanato-3-methylbutane], the IC50 worked out at 75.9 µM.

Consider `CC(=O)O[C@H]1[C@H](OC(C)=O)[C@@H](N=C=S)OC[C@H]1OC(C)=O` [Compound 39, 2,3,4-Tri-O-acetyl-α-D-arabinopyranosyl isothiocyanate], for which the IC50 stood at 50.1 µM.

Consider `S=C=NCCN1CCOCC1` [Compound 25, 2-(4-Morpholino)ethyl isothiocyanate], for which the IC50 was 69 µM.

As for `S=C=NCC1CCCCC1` [Compound 8, Cyclohexylmethyl isothiocyanate], the IC50 stood at 38.1 µM.

In the case of `CC(C)N=C=S` [Compound 15, Isopropyl isothiocyanate], the IC50 was 200 µM.

As to `CCCCCN=C=S` [Compound 6, 1-pentyl isothiocyanate], the IC50 was determined as 32.2 µM.

With `S=C=NCCN1CCCCC1` [Compound 35, 2-Piperidinoethyl isothiocyanate], the IC50 came to 104 µM.

Take `S=C=NCc1ccccc1` [Compound 5, Benzyl isothiocyanate]: the IC50 worked out at 8.37 µM.

Consider `CCCCCC12CCC(C(=O)Oc3ccc(N=C=S)cc3)(CC1)CC2` [Compound 37, 4-Isothiocyanatophenyl 4-pentylbicyclo[2.2.2] octane-1-carboxylate], for which the IC50 is above 1000 µM.

Take `CCCCCCN=C=S` [Compound 17, Hexyl isothiocyanate]: the IC50 stood at 43.5 µM.

On to `CSc1ccc(N=C=S)cc1` [Compound 4, 4-(Methylthio)phenyl isothiocyanate], for which the IC50 was determined as 10.8 µM.

In the case of `S=C=NC(c1ccccc1)c1ccccc1` [Compound 38, Benzhydryl isothiocyanate], the IC50 was found to be 3.05 µM.

In the case of `S=C=Nc1ccc(Br)cc1` [Compound 20, 4-Bromophenyl isothiocyanate], the IC50 amounted to 4.72 µM.
